Source: US20250289780A1, “N,N'-DIPHENYL-4,4'-BIPHENYLDICARBOXAMIDE ANALOGS AND THEIR USE IN CANCER TREATMENT” (Board of Regents, The University of Texas System, priority 2024, published 2025)
“Also recorded” adds a separate entry of the source.

Columns and labels:
Bcl-xL = Bcl-xL (Homo sapiens, UniProt Q07817); assay: Fluorescence polarization (FP) binding assay, Bcl-xL
Method: (§1) FIGS. 3A-3B show binding affinity to Bcl-xL, Bcl-2 and Mcl-1 determined by FP assay. FIG. 3A: compounds 1-9 mimicking BH3 peptides of proapoptotic proteins (scaffold I). FIG. 3B: Bim-mimicking compounds 10-16 derived from scaffolds II-VIII.
(§2) Their binding affinities on Bcl-xL, Bcl-2, and Mcl-1 were determined by fluorescence polarization (FP) assays (FIG. 3A). […] The role of carboxylic acids at both ends of compound 1 was also studied.

Bcl-2 = Bcl-2 (Homo sapiens, UniProt P10415); assay: Fluorescence polarization (FP) binding assay, Bcl-2
Chain of Bcl-2 (P10415 whole entry): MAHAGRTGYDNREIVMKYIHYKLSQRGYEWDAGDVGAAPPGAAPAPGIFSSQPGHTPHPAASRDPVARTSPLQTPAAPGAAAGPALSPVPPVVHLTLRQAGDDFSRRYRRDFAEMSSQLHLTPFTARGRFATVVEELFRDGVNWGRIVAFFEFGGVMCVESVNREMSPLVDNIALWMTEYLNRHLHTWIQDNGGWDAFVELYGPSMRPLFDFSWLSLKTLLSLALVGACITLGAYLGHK
Method: as §1, §2

Mcl-1 = Mcl-1 (Homo sapiens, UniProt Q07820); assay: Fluorescence polarization (FP) binding assay, Mcl-1
Chain of Mcl-1 (Q07820 whole entry): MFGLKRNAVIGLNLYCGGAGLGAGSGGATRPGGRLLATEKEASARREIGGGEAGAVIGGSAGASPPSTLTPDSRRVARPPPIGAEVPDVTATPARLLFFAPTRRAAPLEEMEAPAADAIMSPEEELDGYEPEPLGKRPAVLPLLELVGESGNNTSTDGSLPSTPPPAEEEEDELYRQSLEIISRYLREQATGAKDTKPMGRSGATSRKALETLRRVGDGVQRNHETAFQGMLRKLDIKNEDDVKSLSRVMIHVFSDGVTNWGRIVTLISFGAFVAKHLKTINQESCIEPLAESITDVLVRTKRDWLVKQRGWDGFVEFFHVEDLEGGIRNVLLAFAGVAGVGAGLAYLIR
Method: as §1, §2

caspase-3/-9 = assay: Caspase-3/-9 colorimetric activity assay in PC3 cells; format: cell-based; conditions: for caspase-9/-3 activity (in words): PC3 cells, different concentrations, 24 h
Method: (§3) FIGS. 5A-5F show cellular activity of mimetics 1, 14, and 23. FIG. 5A: effect of mimetics on the interaction between Bak and antiapoptotic proteins. PC3 cells were incubated in the presence or absence of mimetics (10 μM) for 24 h and cell lysates were analyzed by immunoprecipitation followed by western blotting. FIG. 5B: mitochondrial membrane depolarization by mimetics. PC3 cells that were treated with mimetics, ABT737 or MIM1 were stained with JC-1 dye and analyzed for change in red to green fluorescence intensity ratio of JC-1 dye. FIG. 5C: activation of caspase-3/-9 by mimetics. PC3 cells were treated with different concentrations of mimetics, ABT737, and MIM1 for 24 h and activities of caspase-3/-9 were measured using caspase-specific colorimetric assay kits. FIG. 5D: downregulation of Mcl-1 by siRNA. PC3 cells were transfected with Mcl-1 siRNA (30 μmol) or control siRNA (30 μmol) for 24 h and cell lysates were analyzed by western blotting. FIG. 5E: effect of Mcl-1 knockdown on mimetics-induced caspase activation. Same as for C except for the use of Mcl-1 knockdown PC3 cells. FIG. 5F: effect of Mcl-1 knockdown on mimetics-induced cell growth. PC3 cells were treated with mimetics (10 μM) or MIM1 (10 μM) for 24 h and cell viability was determined using MTT assay.
(§4) These compounds were examined for their capabilities of inducing apoptosis. When effectors are released from anti-apoptotic proteins, they form pores on the outer mitochondrial membrane, leading to mitochondrial outer membrane permeabilization (MOMP) and cytochrome c release which promote caspase activation. The formation of pores on the outer mitochondrial membrane and the resulting change in mitochondrial membrane potential were determined by JC-1 staining. […] The anti-proliferative activity was also evaluated using MTT assay in prostate cancer cells.
(§5) Its specificity to Mcl-1 on prostate cancer cells with Mcl-1 silenced by siRNA (FIG. 5D) was further investigated. Compound 23 induced up to 3-fold increase in caspase-3/-9 activity in untransfected and control-transfected PC3 cells. Knockdown of Mcl-1, however, decreased the M161-induced caspase activity to the basal level (FIG. 5E). In MTT assay, 23 inhibited cell growth by 64% and 62% in untransfected and control-transfected PC3 cells, respectively.

PC3 cells [1] = assay: MTT anti-proliferative assay, PC3; format: cell-based; conditions: for cell growth inhibition: 10 μM, 24 h, MTT
Method: as §3, §4, §5

[2] = target: T1, interaction of Bak with Mcl-1 (Homo sapiens, UniProt Q07820); assay: Co-immunoprecipitation in PC3 cells, Bak/Mcl-1; format: cell-based; conditions: 10 μM, 24 h, immunoprecipitation and western blotting
T1 construct: endogenous in cells; host or cells: PC3 cells
T1 sequence (Q07820 whole entry): as above
Method: as §3, with “assay. […]” for “assay.”

PC3 cells [3] = assay: Mitochondrial membrane depolarization, JC-1 staining; format: cell-based
Method: as §3, with “FIG. 5E: effect of Mcl-1 knockdown on mimetics-induced caspase activation. Same as for C except for the use of Mcl-1 knockdown PC3 cells. FIG. 5F: effect of Mcl-1 knockdown on mimetics-induced cell growth.” left out
These compounds were examined for their capabilities of inducing apoptosis. […] The formation of pores on the outer mitochondrial membrane and the resulting change in mitochondrial membrane potential were determined by JC-1 staining. […] The anti-proliferative activity was also evaluated using MTT assay in prostate cancer cells.

[4] = target: T2, interaction of Bak with Bcl-2 (Homo sapiens, UniProt P10415); assay: Co-immunoprecipitation in PC3 cells, Bak/Bcl-2; format: cell-based; conditions: 10 μM, 24 h, immunoprecipitation and western blotting
T2 construct: endogenous in cells; host or cells: PC3 cells
T2 sequence (P10415 whole entry): as the sequence (P10415 whole entry) above
Method: as §3, with “assay. […]” for “assay.”

[5] = target: T3, interaction of Bak with Bcl-xL (Homo sapiens, UniProt Q07817); assay: Co-immunoprecipitation in PC3 cells, Bak/Bcl-xL; format: cell-based; conditions: 10 μM, 24 h, immunoprecipitation and western blotting
T3 construct: endogenous in cells; host or cells: PC3 cells
T3 sequence (Q07817 whole entry): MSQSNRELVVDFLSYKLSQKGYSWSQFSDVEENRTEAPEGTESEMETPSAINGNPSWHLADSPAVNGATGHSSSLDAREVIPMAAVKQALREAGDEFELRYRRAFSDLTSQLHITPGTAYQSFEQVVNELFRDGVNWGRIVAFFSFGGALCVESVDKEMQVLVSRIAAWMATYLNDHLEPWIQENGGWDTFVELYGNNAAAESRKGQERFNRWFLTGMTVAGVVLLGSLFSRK
Method: as §3, with “assay. […]” for “assay.”

LNCaP cells = assay: MTT anti-proliferative assay, LNCaP; format: cell-based; conditions: Homo sapiens, read-out: IC50, cell growth
Method: as §4

DU145 cells = assay: MTT anti-proliferative assay, DU145; format: cell-based; conditions: Homo sapiens, DU-145, read-out: IC50, cell growth
Method: as §4

Chain of Bcl-xL (Q07817 whole entry): as above

| SMILES | binding affinity to Bcl-xL (in words) (Bcl-xL) | binding affinity to Bcl-2 (in words) (Bcl-2) | binding affinity to Mcl-1 (in words) (Mcl-1) | other results |
| --- | --- | --- | --- | --- |
| CCC(C)COc1cc(-c2ccc(C(=O)Nc3ccc(C(=O)O)c(OC(C)CC)c3)c(OCCC(C)C)c2)ccc1C(=O)Nc1ccc(C(=O)O)c(OCc2ccccc2)c1 (stereo not shown) [Compound 11] | selectivity for Bcl-xL and Bcl-2 | selectivity for Bcl-xL and Bcl-2 | – | – |
| CCC(C)COc1cc(-c2ccc(C(=O)Nc3ccc(C(=O)O)c(OC(C)CC)c3)c(OCCC(C)C)c2)ccc1C(=O)Nc1ccc(C(=O)O)cc1OCc1ccccc1 (stereo not shown) [Compound 10] | lost affinity | maintaining affinity | maintaining affinity | – |
| CCC(C)COc1cc(-c2ccc(C(=O)Nc3ccc(C(=O)O)cc3OC(C)C)c(OCCC(C)C)c2)ccc1C(=O)Nc1ccc(C(=O)O)cc1OC(C)CC (stereo not shown) [Compound 5] | negligible affinity; also recorded: not to Bcl-xL | – | – | – |
| CCC(C)COc1cc(-c2ccc(C(=O)Nc3ccc(C(=O)O)cc3OC(C)CC)c(OC(C)CC)c2)ccc1C(=O)Nc1ccc(C(=O)O)cc1OCc1ccccc1 (stereo not shown) [Compound 22] | selective affinity only to Bcl-xL | – | – | IC50 (Bcl-xL): 650 nM |
| CCC(C)COc1cc(-c2ccc(C(=O)Nc3ccc(C(=O)O)cc3OCC(C)C)c(OCCC(C)C)c2)ccc1C(=O)Nc1ccc(C(=O)O)cc1OCC(C)C (stereo not shown) [Compound 4] | – | very selective for inhibiting Bcl-2 over Bcl-xL and Mcl-1 | – | – |
| CCC(C)Oc1cc(C(=O)O)ccc1NC(=O)c1ccc(-c2ccc(C(=O)Nc3ccc(C(=O)O)cc3OC(C)CC)c(OC(C)C)c2)cc1OCCC(C)C (stereo not shown) [Compound 23] | – | – | selectively inhibited only Mcl-1 | induced caspase activity (in words) (caspase-3/-9; Mcl-1 knockdown (siRNA) PC3 cells): basal level; caspase-9/-3 activity (in words) (caspase-3/-9): induced caspase-9/-3 activity in a dose-dependent manner; increase in caspase-3/-9 activity (caspase-3/-9; control-transfected PC3 cells): up to 3 fold; increase in caspase-3/-9 activity (caspase-3/-9; untransfected PC3 cells): up to 3 fold; cell growth inhibition (PC3 cells [1]; Mcl-1 knockdown PC3 cells): 18%; cell growth inhibition (PC3 cells [1]; control-transfected PC3 cells): 62%; cell growth inhibition (PC3 cells [1]; untransfected PC3 cells): 64%; disruption of the interaction of Bak with Mcl-1 [2]: selectively inhibited Mcl-1 over Bcl-xL and Bcl-2; red to green fluorescence intensity ratio of JC-1 dye (PC3 cells [3]): significantly reduced; IC50 (Mcl-1): 160 nM |
| CCC(C)COc1cc(-c2ccc(C(=O)Nc3ccc(C(=O)O)cc3OC(C)CC)cc2OCCC(C)C)ccc1C(=O)Nc1ccc(C(=O)O)cc1OCc1ccccc1 (stereo not shown) [Compound 12] | significantly lost affinity | significantly lost affinity | significantly lost affinity | – |
| CCC(C)COc1cc(-c2ccc(C(=O)Nc3ccc(C(=O)O)cc3OC(C)CC)c(OCCC(C)C)c2)ccc1C(=O)Nc1ccccc1OCc1ccccc1 (stereo not shown) [Compound 9] | complete loss in binding affinities | complete loss in binding affinities | complete loss in binding affinities | – |
| CCCCOc1cc(C(=O)O)ccc1NC(=O)c1ccc(-c2ccc(C(=O)Nc3ccc(C(=O)O)cc3OC(C)CC)c(OCCC(C)C)c2)cc1OCC(C)C (stereo not shown) [Compound 3] | no inhibition | no inhibition | no inhibition | – |
| CCCCCOc1cc(-c2ccc(C(=O)Nc3ccc(C(=O)O)cc3OCc3ccc(F)cc3)c(OCCC(C)C)c2)ccc1C(=O)Nc1ccc(C(=O)O)cc1OCc1ccccc1 [Compound 6] | did not bind | did not bind | did not bind | – |
| CCC(C)Oc1cc(C(=O)O)ccc1NC(=O)c1ccc(-c2ccc(C(=O)Nc3ccc(C(=O)O)cc3OC(C)CC)c(OC(C)CC)c2)cc1OCCC(C)C (stereo not shown) [Compound 20] | negligible binding | – | negligible binding | IC50 (Bcl-2): 340 nM |
| CCC(C)COc1cc(-c2ccc(C(=O)Nc3ccc(C(=O)O)cc3OC(C)CC)c(OCCC(C)C)c2)ccc1C(=O)Nc1ccc(C(=O)O)cc1OCc1ccccc1 (stereo not shown) [Compound 1, 3-(Benzyloxy)-4-(4′-((2-(sec-butoxy)-4-carboxyphenyl)carbamoyl)-3′-(isopentyloxy)-3-(2-methylbutoxy)-[1,1′-biphenyl]-4-carboxamido)benzoic acid] | – | – | – | caspase-9/-3 activity (in words) (caspase-3/-9): induced caspase-9/-3 activity in a dose-dependent manner; IC50 (PC3 cells [1]; Homo sapiens, PC-3, PC3, MTT assay, read-out: IC50, cell growth): 2.87 to 9.67 µM; disruption of the interaction of Bak with Bcl-2 [4]: disrupted the interaction; IC50 (Bcl-xL): 140 to 230 nM; disruption of the interaction of Bak with Bcl-xL [5]: disrupted the interaction; disruption of the interaction of Bak with Mcl-1 [2]: disrupted the interaction; IC50 (LNCaP cells): 2.87 to 9.67 µM; red to green fluorescence intensity ratio of JC-1 dye (PC3 cells [3]): significantly reduced; IC50 (Bcl-2): 140 to 230 nM; IC50 (Mcl-1): 140 to 230 nM; IC50 (DU145 cells): 2.87 to 9.67 µM |
| CCOc1cc(C(=O)O)ccc1NC(=O)c1ccc(-c2ccc(C(=O)Nc3ccc(C(=O)O)cc3OCC(C)C)c(OCCc3ccccc3)c2)cc1OCCC(C)C [Compound 7] | – | affinity only for Bcl-2 | – | – |
| CCC(C)COc1cc(-c2ccc(C(=O)Nc3ccc(C(=O)O)cc3OC(C)CC)cc2OCCC(C)C)ccc1C(=O)Nc1ccc(C(=O)O)c(OCc2ccccc2)c1 (stereo not shown) [Compound 13] | substantially increased its affinity to Bcl-xL and Bcl-2 compared to Mcl-1 | substantially increased its affinity to Bcl-xL and Bcl-2 compared to Mcl-1 | – | – |
| CCCCCOc1cc(-c2ccc(C(=O)Nc3ccc(C(=O)O)cc3OC(C)CC)c(OCCC(C)C)c2)ccc1C(=O)Nc1ccc(C(=O)O)cc1OCC(C)C (stereo not shown) [Compound 2] | low affinity | high affinity | low affinity | – |
